Values after ≈ are worked out from the molar mass of the structure shown. Like-named read-outs stand apart in the source and are kept apart here.
Key:
[1] = tested on: S. pyogenes A-9604; assay: MIC by tube dilution in Nutrient Broth; format: cell-based; details: additional data; overnight at 37° C.
[2] = tested on: S. pneumoniae A-9585; assay: MIC by tube dilution in Nutrient Broth; format: cell-based; details: additional data; overnight at 37° C.
[3] = tested on: E. cloacae A-9659; assay: MIC by tube dilution in Nutrient Broth; format: cell-based; details: additional data; overnight at 37° C.
[4] = tested on: S. aureus (Pen-res.) A-9606; assay: MIC by tube dilution in Nutrient Broth; format: cell-based; details: additional data, overnight at 37° C.
[5] = tested on: K. pneumoniae A20468; assay: MIC by tube dilution in Nutrient Broth; format: cell-based; details: additional data; overnight at 37° C.
[6] = tested on: P. morganii A15153; assay: MIC by tube dilution in Nutrient Broth; format: cell-based; details: additional data (M. morganii A15153); overnight at 37° C.
[7] = tested on: S. aureus A-9537; assay: MIC by tube dilution in Nutrient Broth; format: cell-based; details: additional data, overnight at 37° C.
[8] = tested on: E. cloacae A-9656; assay: MIC by tube dilution in Nutrient Broth; format: cell-based; details: additional data; overnight at 37° C.
[9] = tested on: E. coli A15119; assay: MIC by tube dilution in Nutrient Broth; format: cell-based; details: overnight at 37° C.
[10] = half-life in phosphate buffer pH 7.4; format: physicochemical; details: for t1/2: pH 7.4
Procedure: To a solution of p-nitrobenzyl 3-[2-(1-pyridinium)ethylthio]-6α-[1-(R)-hydroxyethyl]-7-oxo-1-azabicyclo(3.2.0)hept-2-ene-carboxylate diphenylphosphate (0.16 g, 0.22 mmol) in wet tetrahydrofuran (10 mL) was added ether (10 mL), potassium phosphate monobasic-sodium hydroxide buffer pH 7.4 (16 mL, 0.05M) and 10% palladium on charcoal (0.16 g). The resulting mixture was hydrogenated under 40 psi for 1 h at 25° C. The two phases were separated and the organic phase was extracted with water (2×3 mL). The aqueous solutions were combined, washed with ether (2×10 mL) and poured on top of a column (1.5×6.2 cm) of μ-bondapak C-18 after the traces of organic solvents have been removed under vacuum.
To a solution of p-nitrobenzyl 3-[2-(1-(3,5-dimethylpyridinium))ethylthio]-6α-[1-(R)-hydroxyethyl]- 7-oxo-1-azabicyclo(3.2.0)hept-2-ene-2-carboxylate diphenylphosphate (0.600 g, 0.80 mmol) in wet tetrahydrofuran (36 mL) was added ether (36 mL), potassium phosphate monobasic-sodium hydroxide buffer (0.05M, pH 7.4, 44 mL) and 10% palladium on charcoal (0.60 g). The resulting mixture was hydrogenated under 40 psi at 23° C. for 1.25 h. The organic layer was separated and extracted with buffer (2×5 mL). […] Elution of the column with water and lyophilization of the appropriate fractions gave the title compound 0.186 g (64%) as a yellowish powder, ir (KBr) .nu.max : 3700-3100 (OH), 1760 (C= O of β-lactam), 1595 cm^-1 (carboxylate), ^1 Hmr (D2 O) δ: 1.21 (3H, d, J=6.3 Hz, CH3 CHOH), 2.45 (6H, s, CH3 on pyridinium), 2.81 (d, J=9.2 Hz, H-4), 2.96 (d, J=9.2 Hz, H-4), 3.22 (dd, J=2.6 Hz, J=6.2 Hz, H-6), 3.40 (t, J=6.2 Hz, CH2 S), 3.84 (dd, J=9.2 Hz, J=2.6 Hz, H-5), 4.15 (m, CH3 CHOH), 4.71 (t, J=6.2 Hz, CH2 N^+), 8.21 (1H, s, Hp of pyridinium), 8.46 (2H, s, Ho of pyridinium), uv (H2 O) λmax : 279 (ε8345), 296 (ε7714) m, [α]D^23 +40.7 (c 0.53, H2 O), .tau.1/2 =16.9 h (measured at a concentration of […] in phosphate buffer pH 7.4 at 36.8° C.). […]

[11] = tested on: S. faecalis A20688; assay: MIC by tube dilution in Nutrient Broth; format: cell-based; details: additional data; overnight at 37° C.
[12] = tested on: P. aeruginosa A-9843A; assay: MIC by tube dilution in Nutrient Broth; format: cell-based; details: additional data; overnight at 37° C.
[13] = tested on: P. mirabilis A-9900; assay: MIC by tube dilution in Nutrient Broth; format: cell-based; details: additional data; overnight at 37° C.
[14] = tested on: P. rettgeri A22424; assay: MIC by tube dilution in Nutrient Broth; format: cell-based; details: additional data; overnight at 37° C.
[15] = tested on: P. vulgaris A21559; assay: MIC by tube dilution in Nutrient Broth; format: cell-based; details: additional data; overnight at 37° C.
[16] = tested on: K. pneumoniae A-9664; assay: MIC by tube dilution in Nutrient Broth; format: cell-based; details: additional data; overnight at 37° C.
[17] = tested on: E. coli A20341-1; assay: MIC by tube dilution in Nutrient Broth; format: cell-based; details: overnight at 37° C.
[18] = tested on: P. aeruginosa A21213; assay: MIC by tube dilution in Nutrient Broth; format: cell-based; details: additional data; overnight at 37° C.
[19] = tested on: S. marcescens A20019; assay: MIC by tube dilution in Nutrient Broth; format: cell-based; details: additional data; overnight at 37° C.
[20] = Escherichia coli, A15119, additional data, read-out: MIC

Row | MIC [1] [µg/mL] | MIC [2] [µg/mL] | MIC [6] [µg/mL] | MIC ([7]; 50% serum) [µg/mL] | MIC [7] [µg/mL] | MIC [11] [µg/mL] | MIC [12] [µg/mL] | MIC [13] [µg/mL] | MIC [15] [µg/mL] | MIC [18] [µg/mL] | SMILES | further results
1 | 0.004 (≈ 0.0115 µM) | 0.004 (≈ 0.0115 µM) | 0.13 (≈ 0.373 µM) | 0.06 (≈ 0.172 µM) | 0.016 (≈ 0.0459 µM) | 2 (≈ 5.74 µM) | 8 (≈ 23 µM) | 0.13 (≈ 0.373 µM) | – | – | CC(C[n+]1ccccc1)SC1=C(C(=O)[O-])N2C(=O)[C@H]([C@@H](C)O)[C@H]2C1 (single isomer, unassigned) [Ex. 15 (cmp. "A")] | MIC [3]: 0.13 µg/mL (≈ 0.373 µM); MIC [4]: 0.06 µg/mL (≈ 0.172 µM); MIC [5]: 0.13 µg/mL (≈ 0.373 µM); MIC [8]: 0.25 µg/mL (≈ 0.718 µM); MIC ([9]; additional data): 0.03 µg/mL (≈ 0.0861 µM); t1/2 [10]: 15.6 h; MIC [14]: 0.25 µg/mL (≈ 0.718 µM)
2 | 0.001 (≈ 0.00287 µM) | 0.001 (≈ 0.00287 µM) | 0.06 (≈ 0.172 µM) | 0.016 (≈ 0.0459 µM) | 0.004 (≈ 0.0115 µM) | 0.5 (≈ 1.44 µM) | 32 (≈ 91.8 µM) | 0.03 (≈ 0.0861 µM) | 0.016 (≈ 0.0459 µM) | 1 (≈ 2.87 µM) | CC(C[n+]1ccccc1)SC1=C(C(=O)[O-])N2C(=O)[C@H]([C@@H](C)O)[C@H]2C1 (single isomer, unassigned) [Ex. 15 (cmp. "B")] | MIC [16]: 0.03 µg/mL (≈ 0.0861 µM); MIC ([17]; additional data): 0.016 µg/mL (≈ 0.0459 µM); MIC [3]: 0.06 µg/mL (≈ 0.172 µM); MIC [4]: 0.016 µg/mL (≈ 0.0459 µM); MIC [5]: 0.06 µg/mL (≈ 0.172 µM); MIC ([9]; additional data): 0.008 µg/mL (≈ 0.023 µM); MIC [19]: 0.03 µg/mL (≈ 0.0861 µM)
3 | 0.004 (≈ 0.0103 µM) | 0.004 (≈ 0.0103 µM) | 0.13 (≈ 0.335 µM) | 0.06 (≈ 0.154 µM) | 0.06 (≈ 0.154 µM) | 4 (≈ 10.3 µM) | 32 (≈ 82.4 µM) | 0.13 (≈ 0.335 µM) | 0.06 (≈ 0.154 µM) | 2 (≈ 5.15 µM) | C[C@@H](O)[C@H]1C(=O)N2C(C(=O)[O-])=C(SC3CCCCC3[n+]3ccccc3)C[C@H]12 (single isomer, unassigned) [Ex. 16 (cmp. "A"), (5R,6S)3-[2-[(R or S)-(1-pyridinium)]-1-(R or S)-cyclohexylthio]-6-[1-(R)-hydroxyethyl]-7-oxo-1-azabicyclo(3.2.0)hept-2-ene-2-carboxylate] | MIC [16]: 0.13 µg/mL (≈ 0.335 µM); MIC ([17]; additional data): 0.06 µg/mL (≈ 0.154 µM); MIC ([4]; Staphylococcus aureus, read-out: MIC): 0.13 µg/mL (≈ 0.335 µM); half-life ([10]; pH 7.4, t1/2): 16.6 h; MIC [14]: 4 µg/mL (≈ 10.3 µM)
4 | – | – | 0.5 (≈ 1.29 µM) | – | 0.13 (≈ 0.335 µM) | – | – | – | 0.13 (≈ 0.335 µM) | 8 (≈ 20.6 µM) | C[C@@H](O)[C@H]1C(=O)N2C(C(=O)[O-])=C(SC3CCCCC3[n+]3ccccc3)C[C@H]12 (single isomer, unassigned) [Ex. 16 (cmp. "B"), (5R,6S)3-[2-[(R or S)-(1-pyridinium)]-1-(R or S)-cyclohexylthio]-6-[1-(R)-hydroxyethyl]-7-oxo-1-azabicyclo(3.2.0)hept-2-ene-2-carboxylate] | t1/2 [10]: 20.2 h
5 | – | – | – | – | – | – | – | – | – | – | COc1ccc[n+](CCSC2=C(C(=O)[O-])N3C(=O)[C@H]([C@@H](C)O)[C@H]3C2)c1 [Ex. 10, 3-[2-(3-methoxy-1-pyridinium)ethylthio]6α-[1'-(R)-hydroxyethyl]-7-oxo-1-azabicyclo(3.2.0)hept-2-ene-2-carboxylate] | MIC ([17]; Escherichia coli, A203411, additional data, read-out: MIC): 0.06 µg/mL (≈ 0.165 µM)
6 | – | – | – | – | – | – | – | – | – | – | Cc1cccc(C)[n+]1CCSC1=C(C(=O)[O-])N2C(=O)[C@H]([C@@H](C)O)[C@H]2C1 [Ex. 12] | MIC [9, 20]: 0.03 µg/mL (≈ 0.0828 µM)
7 | – | – | – | – | – | – | – | – | – | – | C[C@@H](O)[C@H]1C(=O)N2C(C(=O)[O-])=C(SCC[n+]3cccc(N)c3)C[C@H]12 [Ex. 14, (5R,6S)-3-[2-(3-aminopyridinio)ethylthio]-6-[1-(R)-hydroxyethyl]-7-oxo-1-azabicyclo[3.2.0]hept-2-ene-2-carboxylate] | MIC [9, 20]: 0.03 µg/mL (≈ 0.0859 µM)

Source: US4710568A, “Carbapenem antibiotics” (priority 1986, dated 1987)
